This is an account of results in PMC7697948, “Deciphering Novel Antimicrobial Peptides from the Transcriptome of Papilio xuthus” (Insects, 2020).

In one data set the test system is mouse erythrocytes. In words: Hemolytic assay. In kind it is cell-based. To be noted: 12.5 μg/mL; 2.5% (v/v) mouse erythrocytes in PBS, 30 min at 37 °C, absorbance at 540 nm; at least three independent experiments in triplicate. The protocol: This experiment was approved by the Institutional Animal Care and Use Committee (IACUC) of the National Institute of Agricultural Sciences (approval number: NAS-202014). The hemolytic activity of the peptides was determined by monitoring the release of hemoglobin from mouse erythrocytes at 540 nm. For the hemolytic assay, 20 μL of each peptide solution at a predetermined concentration was added to 180 μL of a 2.5% (v/v) suspension of mouse erythrocytes in phosphate-buffered saline (PBS). Melittin (Sigma, USA), a hemolytic and α-helical peptide isolated from bee venom, was used as the positive control. This mixture was incubated for 30 min at 37 °C, and 600 μL of PBS was then added to each tube. After 3 min of centrifugation at 10,000× g, the supernatant was removed, and the absorbance was measured at 540 nm. Evaluations were made from the results of at least three independent experiments, each carried out in triplicate.

For data set [1] the following is noted: cited from earlier work. The source says: (§1) Papilio xuthus (P. xuthus), commonly known as the swallowtail butterfly, is found in the far east Asian regions of Korea, Japan, China, Taiwan, and Myanmar. Papiliocin is the 37 residue α-helical cecropin-like AMP isolated from an immune challenged larvae of swallowtail butterfly. […] Additionally, the antibacterial and antifungal activity of papiliocin is observed in multidrug- resistant bacterial and fungal strains, respective ...

The subject of data set [2] is Gram-positive and Gram-negative bacteria. To be noted: effect more pronounced in Gram-negative strains; cited from earlier work.
Text: as §1

A further data set has as its system mammalian cells. The following applies: cited from earlier work.
Text: as §1

As for `CC[C@H](C)[C@H](NC(=O)CN)C(=O)NCC(=O)N[C@@H](C)C(=O)N[C@H](C(=O)N[C@@H](CC(C)C)C(=O)N[C@@H](CCCCN)C(=O)N[C@H](C(=O)N[C@@H](CC(C)C)C(=O)N[C@H](C(=O)N[C@H](C(=O)NCC(=O)N[C@@H](CC(C)C)C(=O)N1CCC[C@H]1C(=O)N[C@@H](C)C(=O)N[C@@H](CC(C)C)C(=O)N[C@H](C(=O)N[C@@H](CO)C(=O)N[C@@H](Cc1c[nH]c2ccccc12)C(=O)N[C@H](C(=O)N[C@@H](CCCCN)C(=O)N[C@@H](CCCNC(=N)N)C(=O)N[C@@H](CCCCN)C(=O)N[C@@H](CCCNC(=N)N)C(=O)N[C@@H](CCC(N)=O)C(=O)N[C@@H](CCC(N)=O)C(N)=O)[C@@H](C)CC)[C@@H](C)CC)[C@@H](C)O)[C@@H](C)O)C(C)C)C(C)C` [Melittin], the “hemolysis of mouse red blood cells” value in the data set on mouse erythrocytes came to 92%.
In the case of Papiliocin, the anti-inflammatory activity result in data set [1] was “anti-inflammatory activity”. In addition, the bactericidal activity entry in data set [2] was “bactericidal activity against both Gram-positive and Gram-negative bacteria”. Besides, the “toxicity toward mammalian cells” value in the data set on mammalian cells is “non-toxicity toward mammalian cells”.
